Results: ChEMBL document CHEMBL1151550, “High-affinity FKBP-12 ligands derived from (R)-()-carvone. Synthesis and evaluation of FK506 pyranose ring replacements” (Bioorg Med Chem Lett, 1995)

These compounds were tested against Peptidyl-prolyl cis-trans isomerase FKBP1A (Homo sapiens, UniProt P62942) (assay: Inhibitory activity of compound against FK506 binding protein 12 was determined). Conditions: read-out: Ki app.
Sequence of Peptidyl-prolyl cis-trans isomerase FKBP1A (P62942 whole entry): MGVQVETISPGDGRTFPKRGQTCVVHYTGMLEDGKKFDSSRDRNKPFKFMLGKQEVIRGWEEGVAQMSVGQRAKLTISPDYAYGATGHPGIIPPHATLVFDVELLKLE

SMILES | Ki [nM]
COC(CC(C)C)[C@@H]1CC[C@@H](C)[C@](O)(C(=O)C(=O)N2CCCC[C@H]2C(=O)OCc2ccccc2)C1 (stereo partly specified) | 2.8
CC(C)[C@@H]1CC[C@@H](C)[C@](O)(C(=O)C(=O)N2CCCC[C@H]2C(=O)OCc2ccccc2)C1 | 210
COC[C@@H]1CC[C@@H](C)[C@](O)(C(=O)C(=O)N2CCCC[C@H]2C(=O)OCc2ccccc2)C1 | 258

Now from value to compound:

Ki [nM] | SMILES
112 | C/C=C\C(OC)[C@@H]1CC[C@@H](C)[C@](O)(C(=O)C(=O)N2CCCC[C@H]2C(=O)OCc2ccccc2)C1 (stereo partly specified)
68 | COC(C=C(C)C)[C@@H]1CC[C@@H](C)[C@](O)(C(=O)C(=O)N2CCCC[C@H]2C(=O)OCc2ccccc2)C1 (stereo partly specified)
81 | COC(C)[C@@H]1CC[C@@H](C)[C@](O)(C(=O)C(=O)N2CCCC[C@H]2C(=O)OCc2ccccc2)C1 (stereo partly specified)
